According to patent publication US7045520B2, “Opioid receptor active compounds” (The Curators of the University of Missouri, priority 2002, dated 2006):

Experiments:
[1] = tested on: murine δ opioid receptor; test: biochemical; format: binding; details: for Selectivity for δ receptor (δ/κ): ratio of receptor affinities δ to κ; for Selectivity for δ Receptor (δ/μ): ratio of receptor affinities δ to μ
Protocol: (§1) Competitive Binding Assays. Human embryonic kidney (HEK) 293 cells (ATCC CRL, 1573) were cultured at 37° C. in Dulbecco's modified Eagle's medium supplemented with 10% fetal bovine serum, 100 units/ml penicillin and 100 μg/ml streptomycin sulfate. HEK293 cells were transfected by electroporation with expression plasmids encoding murine δ or μ opioid receptors tagged at the amino termini with the FLAG-tag epitope or the human κ receptor. Cells stably expressing opioid receptors were selected in media containing 0.75 mg/ml G418 (Life Technologies, Gaithersburg, Md.).
(§2) Cell membrane preparations were collected from the stable transfectants described above. Opioid receptor binding assays were conducted in duplicate on membrane preparations that had been resuspended in 50 mM Tris-HCL, pH 7.5, utilizing [9-^3H]bremazocine (specific activity 2.6 Ci/mmol, NEN, Boston, Mass.) as radioligand and 10 μM cyclazocine to define non-specific binding. Following a one-hour incubation on ice, binding assays were terminated by filtration through Whatman GF/B filters. Filters were soaked in Ecoscint liquid scintillation solution (National Diagnostics, Manville, N.J.) and filter-bound radioactivity was measured using a Packard Tri-Carb 2100 TR liquid scintillation analyzer. Receptor binding data were analyzed by non-linear regression of saturation and competition curves using Prism 3.0 software (GraphPad Software, San Diego, Calif.). Protein concentrations were determined with the Bio-Rad protein microassay (Hercules, Calif.) using bovine serum albumin as standard.
(§3) The binding affinities for compounds listed in Table 1 (4a-c and 5a-c) were determined by competition of [9-^3H]bremazocine binding to membranes prepared from stable cells expressing either the cloned μ, δ, or κ opioid receptors as described in the above sections.
(§4) To determine the selectivity profile of compound 5c toward the cloned opioid receptors, competitive binding assays were performed in the presence of increasing concentrations of compound 5c.
(§5) Preliminary Test for Agonist vs. Antagonist Activity. A simple method to determine whether a compound is acting as an agonist or antagonist at a G-Protein coupled receptor is to perform the competitive binding assay in the presence of 100 mM NaCl. The presence of NaCl in the resuspension buffer will result in about a 4 fold decrease in binding affinity for an opioid receptor agonist, whereas an antagonist will show about a 1 fold increase in receptor affinity.

[2] = target: T1, murine δ opioid receptor (Mus musculus, UniProt P32300); test: biochemical; format: binding; details: for Receptor Affinity (relative to 100%) δ: single concentration, 20 μM
T1 construct: expressed in transfected cells
Protocol: as §1, §2, §3, §4, §5

[3] = target: T2, murine μ opioid receptor (Mus musculus, UniProt P42866); test: Competitive binding assay, [9-3H]bremazocine, membranes of stably transfected HEK293 cells; details: for Receptor Affinity (relative to 100%) μ: single concentration, 20 μM; for Ki: average observed, from IC50 by Cheng-Prusoff, read-out: Inhibition Constant, Ki μ
T2 construct: expressed in transfected cells
Protocol: as §1, §2, §3, §4, §5

[4] = target: T3, human κ receptor (Homo sapiens, UniProt P41145); test: as above; details: for Receptor Affinity (relative to 100%) κ: single concentration, 20 μM; for Ki: average observed, from IC50 by Cheng-Prusoff, read-out: Inhibition Constant, Ki κ
T3 construct: expressed in transfected cells
Protocol: as §1, §2, §3, §4, §5

[5] = 100 mM NaCl in resuspension buffer
[6] = Inhibition Constant, Ki δ, average observed, from IC50 by Cheng-Prusoff

| SMILES | Selectivity for δ receptor (δ/κ) [1] | Selectivity for δ Receptor (δ/μ) [1] | Receptor Affinity (relative to 100%) δ [2] | melting point | Receptor Affinity (relative to 100%) μ [3] | Receptor Affinity (relative to 100%) κ [4] | selectivity among the three receptor subtypes ([1]; at 20 μM, μ, δ, κ) | increase in binding affinity in the presence of NaCl, δ [2, 5] | Ki [2, 6] | Ki ([2]; binding affinity for the δ opioid receptor, summary of Table 3) | agonist vs. antagonist activity, δ ([2]; preliminary test, 100 mM NaCl) | increase in binding affinity in the presence of NaCl, μ [3, 5] | Ki [3] | agonist vs. antagonist activity, μ ([3]; preliminary test, 100 mM NaCl) | increase in binding affinity in the presence of NaCl, κ [4, 5] | Ki [4] | agonist vs. antagonist activity, κ ([4]; preliminary test, 100 mM NaCl) |
| --- | --- | --- | --- | --- | --- | --- | --- | --- | --- | --- | --- | --- | --- | --- | --- | --- | --- |
| COc1cccc(-n2cnnc2-c2ccc(C(C)(C)C)cc2)c1 [Compound 4a, 1-{3-[4-(tert-Butyl)phenyl]-(1,2,4-triazol-4-yl)}-3-methoxybenzene] | 1.72 | 2.21 | 31% | 118.2 to 118.8 °C | 14% | 18% | – | – | – | – | – | – | – | – | – | – | – |
| COc1cccc(-n2cnnc2-c2cc(C(C)(C)C)ccc2OC)c1 [Compound 4b, 1-{3-[5-(tert-Butyl)-2-methoxyphenyl](1,2,4-triazol-4-yl)}-3-methoxybenzene] | 0.30 | 0.27 | 8% | 119.5 to 120 °C | 20% | 27% | – | – | – | – | – | – | – | – | – | – | – |
| COc1cccc(-n2cnnc2-c2cccc(C(C)(C)C)c2)c1 [Compound 4c, 1-{3-[3-(tert-Butyl)phenyl]-(1,2,4-triazol-4-yl)}-3-methoxybenzene] | 0.07 | 0.11 | 2% | 175 to 175.5 °C | 19% | 27% | – | – | – | – | – | – | – | – | – | – | – |
| CC(C)(C)c1ccc(-c2nncn2-c2cccc(O)c2)cc1 [Compound 5a, 1-{3-[4-(tert-Butyl)phenyl]-(1,2,4-triazol-4-yl)}-3-phenol] | 0.44 | 1.17 | 21% | – | 18% | 48% | – | – | – | – | – | – | – | – | – | – | – |
| CC(C)(C)c1ccc(O)c(-c2nncn2-c2cccc(O)c2)c1 [Compound 5b, 1-{3-[5-(tert-Butyl)-2-hydroxyphenyl]-(1,2,4-triazol-4-yl)}-3-phenol] | – | – | ~0% | – | 21% | 20% | – | – | – | – | – | – | – | – | – | – | – |
| CC(C)(C)c1cccc(-c2nncn2-c2cccc(O)c2)c1 [Compound 5c, 1-{3-[3-(tert-Butyl)phenyl]-(1,2,4-triazol-4-yl)}-3-phenol] | 0.46 | 0.54 | 39% | 242.5 to 243.5 °C | 72% | 85% | non-selective | ~1 fold | 136 nM | ~100 nM | antagonist | ~1 fold | 444 nM | antagonist | ~1 fold | 1390 nM | antagonist |
| CN(C)c1nnc(-c2ccc(C(C)(C)C)cc2)n1-c1cccc(O)c1 [Compound 5d, 1-{3-[4-(tert-butyl)phenyl]-5-N,N-dimethylamino-(1,2,4-triazol-4-yl)}-3-phenol] | – | – | – | – | – | – | – | – | 300 nM | – | – | – | 4000 nM | – | – | > 10000 nM | – |
